≈ marks a conversion by molar mass, not a printed value. Calls of active or inactive are those of the source. No cut-off for these calls is given here.
How the values were obtained:
[1] = Protein binding in plasma by dialysis method; format: ADME, cell-free; details: read-out: PPB (converted)
[2] = biological target: T1, 5-hydroxytryptamine receptor 2B (Homo sapiens, UniProt P41595); experiment: Antagonist activity at 5-HT2B receptor expressed in CHOK1 cells assessed as inhibition of serotonin-induced intracellular Ca2+ flux by aequorin luminescence assay; format: functional, cell-based, CHO-K1
T1 sequence (P41595 whole entry): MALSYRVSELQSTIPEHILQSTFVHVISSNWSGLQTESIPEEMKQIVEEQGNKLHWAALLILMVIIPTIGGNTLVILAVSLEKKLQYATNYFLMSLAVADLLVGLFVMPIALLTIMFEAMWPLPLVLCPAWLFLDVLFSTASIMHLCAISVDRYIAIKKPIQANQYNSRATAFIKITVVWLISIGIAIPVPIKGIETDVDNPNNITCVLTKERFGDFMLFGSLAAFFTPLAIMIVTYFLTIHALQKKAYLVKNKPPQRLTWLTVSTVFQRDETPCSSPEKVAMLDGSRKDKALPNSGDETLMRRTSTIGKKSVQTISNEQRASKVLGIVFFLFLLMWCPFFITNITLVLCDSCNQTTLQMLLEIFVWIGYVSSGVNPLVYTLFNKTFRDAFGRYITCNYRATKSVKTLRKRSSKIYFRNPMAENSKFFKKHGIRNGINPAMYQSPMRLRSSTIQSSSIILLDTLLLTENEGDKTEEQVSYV

[3] = biological target: T1, 5-hydroxytryptamine receptor 2B; experiment: Antagonist activity at 5-HT2B receptor expressed in CHOK1 cells assessed as inhibition of serotonin-induced intracellular Ca2+ flux by aequorin luminescence assay in presence of 4% human serum albumin; format: functional, cell-based, CHO-K1
[4] = Cmax in Sprague-Dawley rat 10 mg/kg, po; format: ADME, organism-based; parameters: dose 10 mg/kg, route oral; details: in vivo
[5] = Oral bioavailability in Sprague-Dawley rat; format: ADME, organism-based; details: in vivo
[6] = AUC in Sprague-Dawley rat at 10 mg/kg, po; format: ADME, organism-based; parameters: dose 10 mg/kg, route oral; details: plasma
[7] = Cmax in Wistar rat 10 mg/kg, po; format: ADME, organism-based; parameters: dose 10 mg/kg, route oral; details: in vivo
[8] = Selectivity for 5-HT2B receptor over 5-HT2A receptor
[9] = Selectivity for 5-HT2B receptor over 5-HT2C receptor
[10] = Oral bioavailability in Wistar rat; format: ADME, organism-based; details: in vivo
Rattus norvegicus = experiment: Hepatic blood flow in Wistar rat at 1 mg/kg, iv; format: ADME, organism-based, Liver; parameters: dose 1 mg/kg, route intravenous; details: in vivo
[11] = AUC in Wistar rat at 10 mg/kg, po; format: ADME, organism-based; parameters: dose 10 mg/kg, route oral; details: plasma
[12] = Aqueous solubility of compound at pH 7.4; format: physicochemical; details: aqueous medium
[13] = biological target: 5-hydroxytryptamine receptor 2A (Homo sapiens) (UniProt P28223); experiment: Antagonist activity at 5-HT2A receptor up to 10 uM by FLIPR assay; format: functional
Chain of 5-hydroxytryptamine receptor 2A (Homo sapiens) (P28223 whole entry): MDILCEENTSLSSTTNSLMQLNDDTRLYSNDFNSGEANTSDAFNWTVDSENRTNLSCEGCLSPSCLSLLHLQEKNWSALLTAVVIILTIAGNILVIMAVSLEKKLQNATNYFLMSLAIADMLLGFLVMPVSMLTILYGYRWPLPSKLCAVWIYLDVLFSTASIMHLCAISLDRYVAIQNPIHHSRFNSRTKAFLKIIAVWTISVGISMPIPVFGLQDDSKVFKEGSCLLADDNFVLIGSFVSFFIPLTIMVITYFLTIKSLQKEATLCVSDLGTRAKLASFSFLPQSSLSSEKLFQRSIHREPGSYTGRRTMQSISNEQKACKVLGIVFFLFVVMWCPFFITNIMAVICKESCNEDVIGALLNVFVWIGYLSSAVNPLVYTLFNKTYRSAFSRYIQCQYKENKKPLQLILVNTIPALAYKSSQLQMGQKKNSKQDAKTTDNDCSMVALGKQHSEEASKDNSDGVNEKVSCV

[14] = biological target: T2, 5-hydroxytryptamine receptor 2C (Homo sapiens) (UniProt P28335); experiment: Antagonist activity at 5-HT2C receptor up to 10 uM by FLIPR assay; format: functional
T2 sequence (whole entry): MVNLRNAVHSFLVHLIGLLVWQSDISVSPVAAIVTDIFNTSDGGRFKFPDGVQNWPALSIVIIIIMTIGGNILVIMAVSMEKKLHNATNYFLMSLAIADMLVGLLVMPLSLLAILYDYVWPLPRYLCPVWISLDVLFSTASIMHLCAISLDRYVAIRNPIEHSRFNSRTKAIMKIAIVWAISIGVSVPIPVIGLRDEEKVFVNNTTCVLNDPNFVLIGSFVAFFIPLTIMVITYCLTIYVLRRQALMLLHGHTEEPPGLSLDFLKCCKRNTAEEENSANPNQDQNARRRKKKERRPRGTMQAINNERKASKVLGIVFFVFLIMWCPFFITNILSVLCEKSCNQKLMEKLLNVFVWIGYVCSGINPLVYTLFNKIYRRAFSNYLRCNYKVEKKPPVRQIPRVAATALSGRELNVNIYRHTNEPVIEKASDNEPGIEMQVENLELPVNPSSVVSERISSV

[15] = Inhibition of dopamine D4.2 receptor at 10 uM

O=C(c1cnc(-c2ccccc2)nc1)N1CCC(c2nc3ccccc3[nH]2)CC1
fraction unbound [1]: 0.009
IC50 [2]: 2.5 nM
IC50 [3]: 710 nM

COc1ccc(-c2ccc(C(=O)N3CCC(c4nc5ccccc5[nH]4)CC3)cc2)cc1
IC50 [2]: 3.4 nM
IC50 [3]: 3200 nM

O=S(=O)(c1ccc(-c2ccc(F)cc2)cc1)N1CCC(c2ncc[nH]2)CC1
Cmax [4]: 870 ng/mL
IC50 [2]: 0.6 nM
IC50 [3]: 30 nM
bioavailability [5]: 54%
AUC [6]: 2300 ng·h/mL

O=S(=O)(c1ccc(-c2ccccc2)cc1)N1CCC(c2ncc[nH]2)CC1
IC50 [2]: 0.3 nM
IC50 [3]: 32 nM

N#Cc1cc(CN2CCC(Nc3ncnc4sc(Cl)cc34)CC2)ccc1F [PRX-08066 FREE BASE]
Cmax [7]: 240 ng/mL
Selectivity ratio [8]: > 3000
fraction unbound [1]: 0.01
IC50 [2]: 3.5 nM
IC50 [3]: 270 nM
Selectivity ratio [9]: > 3000
bioavailability [10]: 17%
QH (Rattus norvegicus): 82%
AUC [11]: 500 ng·h/mL

O=S(=O)(c1ccc(-c2ccccc2)cc1)N1CCC(Cc2ncc[nH]2)CC1
IC50 [2]: 6.5 nM
IC50 [3]: 990 nM

CCOc1nc(-c2ccccc2)ncc1C(=O)N1CCC(c2nc3ccccc3[nH]2)CC1
IC50 [2]: 6 nM
IC50 [3]: 910 nM

O=S(=O)(c1ccc(-c2ccccc2)cc1)N1CCC(Cc2nc3ccccc3[nH]2)CC1
IC50 [2]: 1100 nM
IC50 [3]: > 23000 nM

NC(=O)C1CCN(C(=O)c2ccc(-c3ccccc3)cc2)CC1
IC50 [2]: > 6500 nM

O=C(c1ccc(-c2ccc(F)cc2)cc1)N1CCC(Cc2ncc[nH]2)CC1
Cmax [4]: 600 ng/mL
bioavailability [5]: 118%
AUC [6]: 6500 ng·h/mL

O=C(c1ccc(-c2ccc(OC(F)(F)F)cc2)cc1)N1CCC(c2nc3ccccc3[nH]2)CC1
IC50 [2]: 95 nM
IC50 [3]: 16000 nM

O=C(c1ccc(-c2ccccc2)cc1)N1CCC(c2ncc[nH]2)CC1
fraction unbound [1]: 0.001

O=C(c1ccc(-c2ccc(F)cc2)cc1)N1CCC(c2ncc[nH]2)CC1
Cmax [4]: 1700 ng/mL
bioavailability [5]: 100%
AUC [6]: 14000 ng·h/mL

O=C(c1ccc(Br)cc1)N1CCC(c2nc3ccccc3[nH]2)CC1
IC50 [2]: > 13000 nM
IC50 [3]: > 26000 nM

O=C(c1ccc(-c2ccccc2)cn1)N1CCC(c2nc3ccccc3[nH]2)CC1
IC50 [2]: 12 nM
IC50 [3]: > 2400 nM

CC(C)c1cc(-c2ccc(F)c3ccccc23)nc(N)n1
Cmax [7]: 470 ng/mL
Selectivity ratio [8]: 2000
fraction unbound [1]: 0.001
IC50 [2]: 0.7 nM
IC50 [3]: 19 nM
Selectivity ratio [9]: 92
bioavailability [10]: 10%
QH (Rattus norvegicus): 29%
AUC [11]: 810 ng·h/mL

O=C(c1ccc(-c2ccncc2)cc1)N1CCC(c2nc3ccccc3[nH]2)CC1
IC50 [2]: > 1300 nM
IC50 [3]: > 13000 nM

O=C(c1ccc(-c2cccnc2)cc1)N1CCC(c2nc3ccccc3[nH]2)CC1
IC50 [2]: 340 nM
IC50 [3]: > 14000 nM

O=C(c1ccc(-c2ccccc2)cc1)N1CCC(c2nc3ccccc3o2)CC1
IC50 [2]: 1500 nM
IC50 [3]: > 20000 nM

O=C(c1ccc(-c2ncccn2)cc1)N1CCC(c2nc3ccccc3[nH]2)CC1
IC50 [2]: 120 nM
IC50 [3]: > 2700 nM

O=C(C1CCC(c2ccccc2)CC1)N1CCC(c2nc3ccccc3[nH]2)CC1 (centres undefined)
IC50 [2]: 610 nM
IC50 [3]: > 20000 nM

O=C(c1ccccc1)N1CCC(c2nc3ccccc3[nH]2)CC1
IC50 [2]: > 10000 nM
IC50 [3]: > 10000 nM

O=C(c1ccc(-c2ccccc2)cc1)N1CCC(Cc2ncc[nH]2)CC1
IC50 [2]: 0.4 nM
IC50 [3]: 14 nM

NC(=O)c1ccc(-c2ccc(C(=O)N3CCC(c4nc5ccccc5[nH]4)CC3)cc2)cc1
IC50 [2]: > 2400 nM
IC50 [3]: > 24000 nM

O=C(c1ccc(N2CCCCC2)cc1)N1CCC(c2nc3ccccc3[nH]2)CC1
IC50 [2]: 48 nM
IC50 [3]: 12000 nM

O=C(c1ccc(-c2ccccc2)cc1)N1CCN(c2nc3ccccc3[nH]2)CC1
IC50 [2]: 6900 nM
IC50 [3]: > 25000 nM

O=C(c1ccc(-c2ccccc2)cc1)N1CCC(c2nc3ccccc3[nH]2)CC1
solubility [12]: 3 µg/mL (≈ 7.86 µM)
Cmax [4]: 5000 ng/mL
Selectivity ratio [8]: > 10000
fraction unbound [1]: 0.001
IC50 [2]: 2.4 nM
IC50 [3]: 1200 nM
Activity [13]: inactive
Activity [14]: inactive
inhibition [15]: 99%
Selectivity ratio [9]: > 10000
bioavailability [5]: 130%
AUC [6]: 25000 ng·h/mL

O=C(c1ccc(-c2ccccc2)cc1)N1CCC(Cc2nc3ccccc3[nH]2)CC1
IC50 [2]: 2.3 nM
IC50 [3]: 300 nM

O=C(c1ccc(C2CCCCC2)cc1)N1CCC(c2nc3ccccc3[nH]2)CC1
IC50 [2]: 31 nM
IC50 [3]: 1100 nM

Cc1cc2c(cc1Cl)N(C(=O)Nc1cccc3ncccc13)CC2
Selectivity ratio [8]: 7
IC50 [2]: 13 nM
IC50 [3]: 64 nM
Selectivity ratio [9]: 0.5

O=S(=O)(c1ccc(-c2ccccc2)cc1)N1CCC(c2nc3ccccc3[nH]2)CC1
IC50 [2]: 1.9 nM
IC50 [3]: 840 nM

COc1cc(-c2ccccc2)ccc1C(=O)N1CCC(c2nc3ccccc3[nH]2)CC1
IC50 [2]: 4 nM
IC50 [3]: 1200 nM

Cn1c(C2CCN(C(=O)c3ccc(-c4ccccc4)cc3)CC2)nc2ccccc21
IC50 [2]: 80 nM
IC50 [3]: 10000 nM

c1ccc(-c2ccc(CN3CCC(c4nc5ccccc5[nH]4)CC3)cc2)cc1
IC50 [2]: 65 nM
IC50 [3]: 7300 nM

O=C(c1ccc(-c2ccccc2)cc1)N1CC(c2nc3ccccc3[nH]2)C1
IC50 [2]: 150 nM
IC50 [3]: > 2800 nM

O=C(c1ccc(-c2ccccc2)[nH]c1=O)N1CCC(c2nc3ccccc3[nH]2)CC1
IC50 [2]: 22 nM
IC50 [3]: > 3000 nM

O=C(c1ccc(N2CCOCC2)cc1)N1CCC(c2nc3ccccc3[nH]2)CC1
IC50 [2]: 2300 nM
IC50 [3]: > 26000 nM

— ChEMBL document CHEMBL1138587, “A new class of 5-HT2B antagonists possesses favorable potency, selectivity, and rat pharmacokinetic properties” (Bioorg Med Chem Lett, 2009)
